Assays:
Experiment in all cases: phosphoenolpyruvate titration of purified optical probe (fluorescence ratio)
Format in all cases: binding
Settings in all cases: phosphoenolpyruvate 0 to 10 mM, purified probe treated 10 minutes, ex 420/485 nm, em 528 nm
[1] = biological target: T1, Thermus thermophilus TtPFK optical probe 254/256-TtPFK-cpYFP variant, TtPFK G213T/I253Q/Q254L/G256V/G257L, cpYFP Y1T/N246F (Thermus thermophilus, UniProt P21777, form not given/G213T/G256V/G257L/I253Q/Q254L)
T1 construct: the numbering corresponds to the full length of the phosphoenolpyruvate-sensitive polypeptide; His-tag; made in house; host or cells: E. coli BL21 (DE3)
Description: (§1) • 1. The expression vectors (for example, a phosphoenolpyruvate optical probe expression vector based on pCDF.) were transformed into BL21 (DE3) cells, incubated inverted overnight, and the clones were picked from the plates into 250 mL Erlenmeyer flasks, placed in a shaker at 37 °C and incubated at 220 rpm to OD=0.4-0.8, then 1/1000 (V/V) of IPTG (1 M) was added to induce expression at 18 °C for 24-36 hours. • 2. Upon completion of inducible expression, cells were harvested by centrifugation at 4000 rpm for 30 min, resuspended in 50 mM phosphate buffer and disrupted ultrasonically until the broth were clear, centrifuged at 9600 rpm at 4 °C for 20 min. • 3. The centrifuged supernatant was used to obtain protein by purification through a self-packed nickel column affinity chromatography column, and the protein obtained after nickel column affinity chromatography was further used to obtain protein dissolved in 100 mM HEPES buffer (pH 7.4). • 4. After purified proteins were subjected to SDS-PAGE, probes were diluted to a protein solution having a final concentration of 0.2-5 µM using assay buffer (100 mm HEPES, 100 mM NaCl, pH 7.4). Phosphoenolpyruvate was formulated as a stock solution at a final concentration of 50 mM with the assay buffer (100 mM HEPES, 100 mM NaCl, pH 7.4). • 5. 100 µl 1 µM of protein solution was taken, incubated at 37 °C for 10 min, phosphoenolpyruvate was added for titration, and the fluorescence intensity of 528 nm emission after 420 nm and 485 nm fluorescence excitation of the protein was measured. The fluorescence excitation and emission determination of the samples were done using a multifunctional fluorescence microplate reader. • 6. 100 µl 1 µM of protein solution was taken, incubated at 37 °C for 10 min, and phosphoenolpyruvate was added to determine the absorption and fluorescence spectra of the proteins. Determination of the absorption and fluorescence spectra of the samples was done by spectrophotometer and spectrofluorometer.
(§2) For the 254/255-TtPFK-cpYFP obtained in Example 2 and the 254/255-TtPFK-I253G/Q254L/R255L/G256F-cpYFP-Y1P, 254/255-TtPFK-I253K/Q254L/R255L/G256F-cpYFP-Y1S and 254/256-TtPFK-I253Q/Q254L/G256V/G257L-cpYFP-Y1T/N246F optical probes obtained in Example 6, amino acid were mutated at positions R21, R25, V54, R55, V57, A58, N59, I60, I61, R155, G186, R212, G213, K214, K215, S216 and L320 in the phosphoenolpyruvate binding pocket, and at positions R72, R163, R172 and R246 in the ATP binding pocket to adjust the affinity of the phosphoenolpyruvate optical probe to phosphoenolpyruvate and the substrate specificity. The probes were linearized by reverse PCR, and the sequences of the mutation sites were introduced into the primers. The obtained PCR products were subjected to homologous recombination to obtain plasmids containing the above site mutations. The mutant plasmids were transformed into BL21 (DE3) for induced expression, and the mutant probe proteins were purified for the phosphoenolpyruvate response test. The detection signal of the fusion fluorescent protein containing 2 mM phosphoenolpyruvate was divided by the detection signal of the fusion fluorescent protein without phosphoenolpyruvate. […]

[2] = biological target: T2, Thermus thermophilus TtPFK optical probe 254/255-TtPFK-cpYFP variant, TtPFK N59H/I253K/Q254L/R255L/G256F, cpYFP Y1S (Thermus thermophilus, UniProt P21777, form not given/G256F/I253K/N59H/Q254L/R255L)
T2 construct: the numbering corresponds to the full length of the phosphoenolpyruvate-sensitive polypeptide; His-tag; made in house; host or cells: E. coli BL21 (DE3)
Description: as §1, §2

[3] = biological target: T3, Thermus thermophilus TtPFK optical probe 254/256-TtPFK-cpYFP variant, TtPFK V54Q/I253Q/Q254L/G256V/G257L, cpYFP Y1T/N246F (Thermus thermophilus, UniProt P21777, form not given/G256V/G257L/I253Q/Q254L/V54Q)
T3 construct: the numbering corresponds to the full length of the phosphoenolpyruvate-sensitive polypeptide; His-tag; made in house; host or cells: E. coli BL21 (DE3)
Description: as §1, §2

[4] = biological target: T4, Thermus thermophilus TtPFK optical probe 254/256-TtPFK-cpYFP variant, TtPFK R212M/I253Q/Q254L/G256V/G257L, cpYFP Y1T/N246F (Thermus thermophilus, UniProt P21777, form not given/G256V/G257L/I253Q/Q254L/R212M)
T4 construct: the numbering corresponds to the full length of the phosphoenolpyruvate-sensitive polypeptide; His-tag; made in house; host or cells: E. coli BL21 (DE3)
Description: as §1, §2

[5] = biological target: T5, Thermus thermophilus TtPFK optical probe 254/255-TtPFK-cpYFP variant, TtPFK V54K/I253K/Q254L/R255L/G256F, cpYFP Y1S (Thermus thermophilus, UniProt P21777, form not given/G256F/I253K/Q254L/R255L/V54K)
T5 construct: the numbering corresponds to the full length of the phosphoenolpyruvate-sensitive polypeptide; His-tag; made in house; host or cells: E. coli BL21 (DE3)
Description: as §1, §2

[6] = biological target: T6, Thermus thermophilus TtPFK optical probe 254/255-TtPFK-cpYFP variant, TtPFK V54K/I253G/Q254L/R255L/G256F, cpYFP Y1P (Thermus thermophilus, UniProt P21777, form not given/G256F/I253G/Q254L/R255L/V54K)
T6 construct: the numbering corresponds to the full length of the phosphoenolpyruvate-sensitive polypeptide; His-tag; made in house; host or cells: E. coli BL21 (DE3)
Description: as §1, §2

[7] = biological target: T7, Thermus thermophilus TtPFK optical probe 254/255-TtPFK-cpYFP variant, TtPFK I253V/Q254L/R255L/G256H, cpYFP Y1S (Thermus thermophilus, UniProt P21777, form not given/G256H/I253V/Q254L/R255L)
T7 construct: the numbering corresponds to the full length of the phosphoenolpyruvate-sensitive polypeptide; His-tag; made in house; host or cells: E. coli BL21 (DE3)
Description: as §1
(§3) The recombinant plasmids of the mutation library were transformed into BL21 (DE3) to induce expression, and the purified probe protein was subjected to phosphoenolpyruvate-responsive screening, dividing the detection signal of the fusion fluorescent protein containing 2 mM phosphoenolpyruvate by that of the fusion fluorescent protein without phosphoenolpyruvate. […]

[8] = biological target: T8, Thermus thermophilus TtPFK optical probe 254/255-TtPFK-I253G/Q254L/R255L/G256F-cpYFP-Y1P (Thermus thermophilus, UniProt P21777, form not given/G256F/I253G/Q254L/R255L)
T8 construct: the numbering corresponds to the full length of the phosphoenolpyruvate-sensitive polypeptide; His-tag; made in house; host or cells: E. coli BL21 (DE3)
Description: as §1, §3

T8 sequence (P21777 other isoform, or with tags, fused parts or gaps, stated change not applied): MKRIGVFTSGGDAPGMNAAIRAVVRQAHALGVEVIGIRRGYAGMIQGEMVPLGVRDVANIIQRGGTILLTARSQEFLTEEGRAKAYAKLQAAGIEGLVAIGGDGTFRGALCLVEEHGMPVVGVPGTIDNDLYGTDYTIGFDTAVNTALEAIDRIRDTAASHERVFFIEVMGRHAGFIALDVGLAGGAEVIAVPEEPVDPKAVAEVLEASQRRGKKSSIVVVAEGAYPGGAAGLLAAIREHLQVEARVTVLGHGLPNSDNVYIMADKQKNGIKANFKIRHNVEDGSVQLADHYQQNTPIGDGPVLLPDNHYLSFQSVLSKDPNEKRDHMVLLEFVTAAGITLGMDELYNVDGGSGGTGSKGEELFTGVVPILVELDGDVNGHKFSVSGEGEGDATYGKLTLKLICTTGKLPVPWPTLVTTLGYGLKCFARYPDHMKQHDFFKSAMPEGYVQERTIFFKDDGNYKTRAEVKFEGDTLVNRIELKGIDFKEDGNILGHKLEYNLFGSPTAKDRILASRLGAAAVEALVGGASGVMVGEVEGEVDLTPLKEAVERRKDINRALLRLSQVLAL
T2 sequence (P21777 other isoform, or with tags, fused parts or gaps N59H, form open): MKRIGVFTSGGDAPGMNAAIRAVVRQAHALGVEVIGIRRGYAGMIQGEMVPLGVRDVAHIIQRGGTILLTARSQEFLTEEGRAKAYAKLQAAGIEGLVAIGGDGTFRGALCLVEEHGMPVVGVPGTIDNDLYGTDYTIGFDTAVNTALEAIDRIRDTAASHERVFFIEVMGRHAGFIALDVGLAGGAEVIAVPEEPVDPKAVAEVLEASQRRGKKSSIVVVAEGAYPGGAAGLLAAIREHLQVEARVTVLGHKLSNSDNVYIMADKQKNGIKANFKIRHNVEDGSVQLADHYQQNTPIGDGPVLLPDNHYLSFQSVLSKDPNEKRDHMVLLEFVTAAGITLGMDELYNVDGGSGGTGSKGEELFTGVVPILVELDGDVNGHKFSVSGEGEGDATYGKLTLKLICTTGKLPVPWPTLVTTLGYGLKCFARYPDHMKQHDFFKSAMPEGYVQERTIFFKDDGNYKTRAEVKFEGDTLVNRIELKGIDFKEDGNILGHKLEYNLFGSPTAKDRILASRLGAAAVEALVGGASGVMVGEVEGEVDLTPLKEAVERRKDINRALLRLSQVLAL
T7 sequence (P21777 other isoform, or with tags, fused parts or gaps, stated change not applied): as the sequence (P21777 other isoform, or with tags, fused parts or gaps N59H, form open) above, with H59N, K253V, F502H counted along it
T4 sequence (P21777 other isoform, or with tags, fused parts or gaps R212M, form open): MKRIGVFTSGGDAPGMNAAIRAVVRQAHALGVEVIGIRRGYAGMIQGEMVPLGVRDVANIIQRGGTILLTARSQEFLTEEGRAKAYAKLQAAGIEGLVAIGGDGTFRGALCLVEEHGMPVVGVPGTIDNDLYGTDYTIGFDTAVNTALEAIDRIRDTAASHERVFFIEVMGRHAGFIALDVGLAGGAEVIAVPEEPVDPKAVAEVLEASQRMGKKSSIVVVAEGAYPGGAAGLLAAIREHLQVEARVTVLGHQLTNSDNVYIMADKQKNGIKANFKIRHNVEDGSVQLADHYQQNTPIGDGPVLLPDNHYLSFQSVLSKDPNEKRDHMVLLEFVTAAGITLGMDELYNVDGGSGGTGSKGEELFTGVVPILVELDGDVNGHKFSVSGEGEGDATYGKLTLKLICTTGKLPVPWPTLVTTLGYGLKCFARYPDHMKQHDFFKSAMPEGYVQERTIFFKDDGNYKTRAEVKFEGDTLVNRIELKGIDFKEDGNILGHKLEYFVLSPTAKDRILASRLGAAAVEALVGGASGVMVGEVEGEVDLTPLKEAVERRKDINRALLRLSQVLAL
T6 sequence (P21777 other isoform, or with tags, fused parts or gaps V54K, form open): as the sequence (P21777 other isoform, or with tags, fused parts or gaps N59H, form open) above, with V54K, H59N, K253G, S255P counted along it
T3 sequence (P21777 other isoform, or with tags, fused parts or gaps V54Q, form open): as the sequence (P21777 other isoform, or with tags, fused parts or gaps R212M, form open) above, with V54Q, M212R counted along it
T1 sequence (P21777 other isoform, or with tags, fused parts or gaps G213T, form open): as the sequence (P21777 other isoform, or with tags, fused parts or gaps R212M, form open) above, with M212R, G213T counted along it
T5 sequence (P21777 other isoform, or with tags, fused parts or gaps V54K, form open): as the sequence (P21777 other isoform, or with tags, fused parts or gaps N59H, form open) above, with V54K, H59N counted along it

## C=C(OP(=O)(O)O)C(=O)O [phosphoenolpyruvate, Phosphoenolpyruvate]
[1]
  Kd: 199 µM
[2]
  Kd: 87.7 µM
[3]
  Kd: 281 µM
[4]
  Kd: 714 µM
[5]
  Kd: 129 µM
[6]
  Kd: 267 µM
[7]
  Kd: 5.64 µM
[8]
  Kd: 30.9 µM

— patent EP4624497A1, “PHOSPHOEN[…] PROBE, PREPARATION METHOD THEREFOR AND APPLICATION THEREOF” (priority 2022, dated 2024)
